Laboratory results reported in publication PMC5216056 (Nature Communications, 2017).
“And” between values parts separate entries of the source, which are not always exact repeats. Equal entries are not always repeated. Where two headings read alike, the source gives them in different places.

Columns and labels:
[1] = molecular target: T1, hDAGL-α (Homo sapiens, UniProt Q9Y4D2); test: Biochemical DAGLα activity assay; details: for inhibition at 10 µM: read-out: DAGL % inhibition at 10 µM ± SD
T1 construct: expressed in transfected cells; host or cells: HEK293T (transient), membrane preparation
T1 sequence (Q9Y4D2 1-1042): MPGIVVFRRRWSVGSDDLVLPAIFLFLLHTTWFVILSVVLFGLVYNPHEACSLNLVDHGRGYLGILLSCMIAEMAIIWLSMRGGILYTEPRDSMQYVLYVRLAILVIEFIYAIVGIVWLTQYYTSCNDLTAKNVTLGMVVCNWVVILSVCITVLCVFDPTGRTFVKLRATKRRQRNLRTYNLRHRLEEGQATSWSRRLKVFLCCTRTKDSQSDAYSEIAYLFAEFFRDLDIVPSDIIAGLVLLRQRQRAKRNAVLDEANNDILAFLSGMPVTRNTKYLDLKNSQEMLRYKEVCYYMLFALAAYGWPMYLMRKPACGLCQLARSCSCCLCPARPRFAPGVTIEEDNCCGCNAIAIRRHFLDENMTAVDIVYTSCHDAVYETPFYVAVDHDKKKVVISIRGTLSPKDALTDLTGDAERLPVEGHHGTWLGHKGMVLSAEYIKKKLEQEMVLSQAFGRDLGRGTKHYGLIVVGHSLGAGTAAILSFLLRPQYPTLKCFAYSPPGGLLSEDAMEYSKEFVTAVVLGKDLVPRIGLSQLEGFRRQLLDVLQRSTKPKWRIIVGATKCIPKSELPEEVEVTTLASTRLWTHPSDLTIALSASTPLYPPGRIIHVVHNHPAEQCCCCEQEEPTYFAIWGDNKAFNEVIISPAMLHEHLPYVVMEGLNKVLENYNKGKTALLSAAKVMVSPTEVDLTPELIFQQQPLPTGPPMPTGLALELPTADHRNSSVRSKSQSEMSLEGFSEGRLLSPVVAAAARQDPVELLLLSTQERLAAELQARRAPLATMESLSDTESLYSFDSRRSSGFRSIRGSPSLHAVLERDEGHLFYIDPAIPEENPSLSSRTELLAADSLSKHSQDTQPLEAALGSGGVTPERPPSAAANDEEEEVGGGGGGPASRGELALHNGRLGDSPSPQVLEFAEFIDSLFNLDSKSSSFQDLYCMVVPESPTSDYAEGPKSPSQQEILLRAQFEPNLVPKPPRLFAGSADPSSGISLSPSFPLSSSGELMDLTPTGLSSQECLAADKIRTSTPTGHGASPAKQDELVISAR
Experimental: Cell culture and membrane preparation were performed as previously described. HEK293T cells (source: Dutch Cancer Institute) were grown in DMEM with stable glutamine and phenolred (PAA), 10% New Born Calf serum, penicillin and streptomycin. Cells were passaged every 2–3 days by resuspending in medium and seeding them to appropriate confluence. Membranes were prepared from transiently transfected HEK293T cells. One day prior to transfection 10^7 cells were seeded in a 15 cm petri dish. Cells were transfected by the addition of a 3:1 mixture of polyethyleneimine (60 μg) and plasmid DNA (20 μg) in 2 ml serum-free medium. The medium was refreshed after 24 h, and after 72 h the cells were harvested by suspending them in 20 ml medium. The suspension was centrifuged for 10 min at 1000, rpm, and the supernatant was removed. The cell pellet was stored at −80 °C until use. Cell pellets were thawed on ice and suspended in lysis buffer A (20 mM HEPES, 2 mM DTT, 0.25 M sucrose, 1 mM MgCl2, […] Benzonase). The suspension was homogenized by polytrone (3 × 7 s) and incubated for 30 min on ice. The suspension was subjected to ultracentrifugation (100,000 × g, 30 min, 4 °C, Beckman Coulter, Type Ti70 rotor) to yield the cytosolic fraction in the supernatant and the membrane fraction as a pellet. The pellet was resuspended in lysis buffer B (20 mM HEPES, 2 mM DTT). The protein concentration was determined with Quick Start Bradford assay (Biorad). The protein fractions were diluted to a total protein concentration of 1 mg ml^−1 and stored in small aliquots at −80 °C until use.
hDAGL-α activity was measured by the extent of the hydrolysis of para-nitrophenylbutyrate (PNP-butyrate) by membrane preparations from HEK293T cells (source: Dutch Cancer Institute) transiently transfected with hDAGL-α (ref. [43]). Percentage of inhibition of reference ligands was determined in comparison with an untreated control. Reactions were performed in 50 mM pH 7.2 HEPES buffer with 0.05 μg μl^−1 final protein concentration hDAGL-α transfected protein.

[2] = molecular target: T2, mCB1R (Mus musculus, UniProt P47746); test: biochemical; details: for Emax: read-out: Emax cAMP mCB1R
T2 construct: from tissue; host or cells: brain of male C57BL/6J mice
T2 sequence (P47746 whole entry): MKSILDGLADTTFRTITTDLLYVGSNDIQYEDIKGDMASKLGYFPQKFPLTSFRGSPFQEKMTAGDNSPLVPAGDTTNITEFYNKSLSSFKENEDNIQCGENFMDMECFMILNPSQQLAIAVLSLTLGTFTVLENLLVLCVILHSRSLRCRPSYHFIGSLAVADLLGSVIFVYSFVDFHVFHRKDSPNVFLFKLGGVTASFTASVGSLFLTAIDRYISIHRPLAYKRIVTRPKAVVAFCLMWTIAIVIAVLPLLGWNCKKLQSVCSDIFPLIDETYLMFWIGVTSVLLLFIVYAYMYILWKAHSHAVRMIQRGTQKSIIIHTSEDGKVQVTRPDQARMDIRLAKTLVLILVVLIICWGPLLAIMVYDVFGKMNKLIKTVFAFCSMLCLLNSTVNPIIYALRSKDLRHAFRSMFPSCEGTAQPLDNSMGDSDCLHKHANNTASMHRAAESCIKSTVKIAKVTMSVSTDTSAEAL

[3] = for Pct acceptor / Pct donor / Pct membrane: PAMPA; for Pct membrane: compound found in membranes; for Pampa Peff: membrane permeation coefficient
[4] = molecular target: mCB2R (Mus musculus, UniProt P47936); test: biochemical; format: binding; set-up: from tissue; host or cells: spleen of male C57BL/6J mice
Sequence of mCB2R (P47936 whole entry): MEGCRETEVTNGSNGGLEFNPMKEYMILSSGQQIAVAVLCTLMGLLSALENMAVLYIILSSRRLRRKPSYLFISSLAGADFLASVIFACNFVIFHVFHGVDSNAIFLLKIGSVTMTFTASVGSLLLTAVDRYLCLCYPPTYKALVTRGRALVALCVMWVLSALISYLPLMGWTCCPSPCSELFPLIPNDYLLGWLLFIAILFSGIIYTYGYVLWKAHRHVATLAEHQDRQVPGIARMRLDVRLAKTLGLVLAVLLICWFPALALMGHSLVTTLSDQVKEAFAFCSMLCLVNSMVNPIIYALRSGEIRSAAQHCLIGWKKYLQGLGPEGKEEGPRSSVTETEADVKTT

[5] = molecular target: hCB2R (Homo sapiens, UniProt P34972); test: cell-based; format: cell-based; set-up: expressed in transfected cells; host or cells: Flp-In-293 (Invitrogen #R750-07), pcDNA5/FRT; details: for Emax: read-out: Emax ± SEM cAMP hCB2R
Sequence of hCB2R (P34972 whole entry): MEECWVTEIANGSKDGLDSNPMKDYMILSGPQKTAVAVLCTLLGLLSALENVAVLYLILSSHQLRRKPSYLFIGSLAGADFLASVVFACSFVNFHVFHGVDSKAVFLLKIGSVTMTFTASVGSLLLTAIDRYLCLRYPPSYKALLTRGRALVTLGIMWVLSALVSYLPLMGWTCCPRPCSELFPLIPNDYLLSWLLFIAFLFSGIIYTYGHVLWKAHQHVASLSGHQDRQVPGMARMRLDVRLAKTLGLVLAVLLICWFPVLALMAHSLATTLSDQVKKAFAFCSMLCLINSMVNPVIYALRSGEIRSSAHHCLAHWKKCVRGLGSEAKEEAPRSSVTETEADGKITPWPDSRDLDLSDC

[6] = antagonists in presence of EC80 of CP55940
[7] = mouse spleen membranes, read-out: pKi ± SEM mCB2R (converted)

## CCCCCCC(C)(C)c1cc(OC)c([C@@H]2C=C(CO)[C@@H]3C[C@H]2C3(C)C)c(OC)c1 [HU308]
[1]
  inhibition at 10 µM: 42 ± 3%
[2]; pEC50 ± SEM cAMP mCB1R, mouse brain
  EC50: > 10000 nM
[2]
  Emax: 10%
[3]
  Pct acceptor: 2.8%
  Pct donor: 23.1%
  Pct membrane: 74.3%
  Pampa Peff: 2.53 cm/s*10-6
[4]
  Ki: 70.8 nM
[5]
  Emax: 98 ± 1%

## CCCn1c(C)c(C(=O)c2cccc3ccccc23)c2ccccc21 [JWH015]
[1]
  DAGL % inhibition at 10 µM ± SD: -8 ± 5%
[2]; mouse brain
  pEC50 ± SEM cAMP mCB1R: < 5
[2]; normalized to 10 µM CP55940
  Emax cAMP mCB1R: 29%
[4]; mouse spleen membranes
  pKi ± SEM mCB2R: 6.63 ± 0.21

## Cc1c(C(=O)NN2CCCCC2)nn(-c2ccc(Cl)cc2Cl)c1-c1ccc(I)cc1 [AM251]
[1]
  DAGL % inhibition at 10 µM ± SD: 17 ± 6%
[5]
  Emax ± SEM cAMP hCB2R: -175 ± 19

## CCCCCCC(C)(C)c1cc(OC)c(C2=C[C@H]3CC[C@]2(CO)C3(C)C)c(OC)c1 [HU910]
[1]
  DAGL % inhibition at 10 µM ± SD: 36 ± 1%
[2]; mouse brain
  pEC50 ± SEM cAMP mCB1R: < 5
[2]; normalized to 10 µM CP55940
  Emax cAMP mCB1R: 36%
[3]
  Pct acceptor: 1%
  Pct donor: 42%
  Pct membrane: 57%
  Pampa Peff: 0.45 cm/s*10-6
[4]; mouse spleen membranes
  pKi ± SEM mCB2R: 6.88 ± 0.17
[5]; [6]
  pEC50 ± SEM cAMP hCB2R: 8.41 ± 0.13
[5]; normalized to 10 µM CP55940
  Emax ± SEM cAMP hCB2R: 98 ± 1%

## CCCC(C)(C)c1ccc2c(c1)OC(C)(C)[C@@H]1CC=C(C)C[C@@H]21 [JWH133]
[1]
  DAGL % inhibition at 10 µM ± SD: 30 ± 7%
[2]
  Emax cAMP mCB1R: 11
  pEC50 ± SEM cAMP mCB1R: < 5
[3]
  Pct acceptor: 2.3%
  Pct donor: 36.1%
  Pct membrane: 61.7%
  Pampa Peff: 1.86 cm/s*10-6
[4]
  CB2R Selectivity (binding, mouse): 40 fold
[4]; mouse spleen membranes
  pKi ± SEM mCB2R: 7.69 ± 0.23
[5]
  Emax ± SEM cAMP hCB2R: 98 ± 1
  pEC50 ± SEM cAMP hCB2R: 8.38 ± 0.09

## CN1CCCCC1Cn1cc(C(=O)c2cc([N+](=O)[O-])ccc2I)c2ccccc21 (racemic) [(rac)-AM1241]
[1]
  DAGL % inhibition at 10 µM ± SD: 3 ± 10%
[2]
  Emax cAMP mCB1R: 21
  pEC50 ± SEM cAMP mCB1R: < 5
[3]
  Pct donor: 41.3%
  Pct membrane: 55.7%
  Pampa Peff: 1.86±0.62 cm/s*10-6
[4]
  CB2R Selectivity (binding, mouse): 66 fold
[4]; mouse spleen membranes
  pKi ± SEM mCB2R: 7.73 ± 0.25
[5]
  Emax ± SEM cAMP hCB2R: 67 ± 3
  pEC50 ± SEM cAMP hCB2R: 8.49± 0.08

## CN1CCCC[C@H]1Cn1cc(C(=O)c2cc([N+](=O)[O-])ccc2I)c2ccccc21 [(S)-AM1241]
[1]
  DAGL % inhibition at 10 µM ± SD: 9 ± 9%
[2]
  Emax cAMP mCB1R: 16
[2]; mouse brain
  pEC50 ± SEM cAMP mCB1R: 5.43 ± 0.42
[3]
  Pct acceptor: 2.2%
  Pct donor: 34%
  Pct membrane: 64%
  Pampa Peff: 1.41 cm/s*10-6
[4]; 10^(pKi CB2R-pKi CB1R)
  CB2R Selectivity (binding, mouse): 2 fold
[4]; mouse spleen membranes
  pKi ± SEM mCB2R: 6.74 ± 0.2
[5]
  Emax ± SEM cAMP hCB2R: 78 ± 1
  pEC50 ± SEM cAMP hCB2R: 7.40 ± 0.11

## SR144528
[1]
  DAGL % inhibition at 10 µM ± SD: -28 ± 11%
[2]; normalized to 10 µM CP55940
  Emax cAMP mCB1R: -39%
[5]; normalized to 10 µM CP55940
  Emax ± SEM cAMP hCB2R: -151 ± 10%

## Cc1ccc2c(c1)Cc1c(C(=O)NN3CCCCC3)nn(-c3ccc(Cl)cc3Cl)c1-2 [Gp-1a]
[2]; mouse brain
  pEC50 ± SEM cAMP mCB1R: 5.86 ± 0.42
[2]; normalized to 10 µM CP55940
  Emax cAMP mCB1R: -28%
[3]
  Pct acceptor: 0%
  Pct donor: 29.7%
  Pct membrane: 70.3%
  Pampa Peff: 0 cm/s*10-6
[4]; 10^(pKi CB2R-pKi CB1R)
  CB2R Selectivity (binding, mouse): 20 fold
[4]; mouse spleen membranes
  pKi ± SEM mCB2R: 7.68 ± 0.23
[5]; [6]
  pEC50 ± SEM cAMP hCB2R: 7.52 ± 0.14
[5]; normalized to 10 µM CP55940
  Emax ± SEM cAMP hCB2R: -85 ± 10%

## CCCCC/C=C\C/C=C\C/C=C\C/C=C\CCCC(=O)OC(CO)CO [2-AG, 2-arachidonoyl glycerol]
[1]
  inhibition at 10 µM: -12 ± 16%
[2]; mouse brain, read-out: pEC50 ± SEM cAMP mCB1R (converted)
  EC50: > 6310 nM and 6920 nM
[4]; [7]
  Ki: 29.5 nM
[5]
  Emax: 94 ± 1%

## CN1CCCC[C@@H]1Cn1cc(C(=O)c2cc([N+](=O)[O-])ccc2I)c2ccccc21 [(R)-AM1241]
[1]
  DAGL % inhibition at 10 µM ± SD: 10 ± 12%
[2]
  Emax cAMP mCB1R: 32
[2]; mouse brain
  pEC50 ± SEM cAMP mCB1R: 5.08 ± 0.16
[3]
  Pct acceptor: 2.1%
  Pct donor: 38.3%
  Pct membrane: 59.7%
  Pampa Peff: 1.22 cm/s*10-6
[4]; 10^(pKi CB2R-pKi CB1R)
  CB2R Selectivity (binding, mouse): 17 fold
[4]; mouse spleen membranes
  pKi ± SEM mCB2R: 7.59 ± 0.11
[5]
  Emax ± SEM cAMP hCB2R: 65 ± 2
  pEC50 ± SEM cAMP hCB2R: 8.76 ± 0.18
[5]; 10^(pEC50 CB2R-pEC50 CB1R)
  CB2R Selectivity cAMP (human): 391 fold

## Cc1c(C(=O)c2cccc3ccccc23)c2cccc3c2n1[C@H](CN1CCOCC1)CO3 [WIN55212-2]
[1]
  DAGL % inhibition at 10 µM ± SD: -9 ± 12%
[3]
  Pct acceptor: 0.5%
  Pct donor: 50.6%
  Pct membrane: 49%
  Pampa Peff: 0.25±0.22 cm/s*10-6
[4]; mouse spleen membranes
  pKi ± SEM mCB2R: 7.28 ± 0.17

## CCCCC/C=C\C/C=C\C/C=C\C/C=C\CCCC(=O)NCCO [Anandamide, N-arachidonoylethanolamine]
[1]
  inhibition at 10 µM: 32 ± 22%
[2]
  Emax: < 70%
[3]
  Pct acceptor: 1.2%
  Pct donor: 96.3%
  Pct membrane: 2.7%
  Pampa Peff: 0.26 cm/s*10-6
[4]
  Ki: 347 nM
[5]
  Emax: 87 ± 7%

## COc1ccc(C(=O)c2c(C)n(CCN3CCOCC3)c3cc(I)ccc23)cc1 [AM630]
[1]
  DAGL % inhibition at 10 µM ± SD: 6 ± 12%
[2]
  Emax cAMP mCB1R: 13
[2]; mouse brain
  pEC50 ± SEM cAMP mCB1R: < 5
[3]
  Pct acceptor: 0.37%
  Pct donor: 35.4%
  Pct membrane: 64.3%
  Pampa Peff: 0.2 cm/s*10-6
[4]; mouse spleen membranes
  pKi ± SEM mCB2R: 7.66 ± 0.23
[5]
  Emax ± SEM cAMP hCB2R: -152 ± 13
  pEC50 ± SEM cAMP hCB2R: 7.56 ± 0.05

## Cc1c(C(=O)NN2CCCCC2)nn(-c2ccc(Cl)cc2Cl)c1-c1ccc(Cl)cc1 [SR141716A]
[1]
  inhibition at 10 µM: 20 ± 10%
[3]
  Pct acceptor: 0.3%
  Pct donor: 25.2%
  Pct membrane: 74.3%
  Pampa Peff: 0.27±0.11 cm/s*10-6

## CCCCCCC(C)(C)c1ccc([C@@H]2C[C@H](O)CC[C@H]2CCCO)c(O)c1 [CP55940]
[1]
  inhibition at 10 µM: 20 ± 16%
[2]; pEC50 ± SEM cAMP mCB1R
  EC50: 0.00603 nM
[2]
  Emax: 100%
[3]
  Pampa Peff: 0 cm/s*10-6
[4]; [7]
  Ki: 0.603 nM
